pEC50: −log10 of the molar value.
Each compound was assayed on Cell Necrosis (assay: Cell necrosis assay / cell viability assay (necrosis inhibitor activity)). Details: not given.
Assay type: cell-based

Question: `O=C(N1CC(Oc2ccc3ccccc3c2)C1)N1N=CC[C@H]1c1cc(F)cc(F)c1` [Compound 203, (S)(5-(3,5-difluorophenyl)-4,5-dihydro-1H-pyrazol-1-yl)(3-(naphthalen-2-yloxy)azetidin-1-yl)methanone] was tested. Which pEC50 did it give?
Answer: 6.00 to 9.00

Same assay, conditions: necrosis inhibitor activity; compounds outside 14-191; read-out: EC50

Question: How did the pEC50 turn out when `O=C1COc2cc(F)c(OC3CN(C(=O)N4N=CC[C@H]4c4cccc(F)c4)C3)cc2N1` [Compound 200, (S)-7-fluoro-6-((1-(5-(3-fluorophenyl)-4,5-dihydro-1H-pyrazole-1-carbonyl)azetidin-3-yl)oxy)-2H-benzo[b][1,4]oxazin-3(4H)-one] was run?
Answer: 6.00 to 9.00

Question: How did the pEC50 turn out when `O=C1COc2ccc(OC3CN(C(=O)N4N=CC[C@H]4c4cc(F)cc(F)c4)C3)cc2N1` [Compound 201, (S)-6-((1-(5-(3,5-difluorophenyl)-4,5-dihydro-1H-pyrazole-1-carbonyl)azetidin-3-yl)oxy)-2H-benzo[b][1,4]oxazin-3(4H)-one] was run?
Answer: 6.00 to 9.00

Question: With `O=C1CCc2cc(F)c(OC3CN(C(=O)N4N=CC[C@H]4c4cc(F)cc(F)c4)C3)cc2N1` [Compound 202, (S)-7-((1-(5-(3,5-difluorophenyl)-4,5-dihydro-1H-pyrazole-1-carbonyl)azetidin-3-yl)oxy)-6-fluoro-3,4-dihydroquinolin-2(1H)-one] as the compound, how does the pEC50 read?
Answer: 6.00 to 9.00

Question: `O=C(N1CC(Oc2ccc3ccc(=O)[nH]c3c2)C1)N1N=CCC1c1cc(F)cc(F)c1` (stereo not drawn) [Compound 204, 7-((1-(5-(3,5-difluorophenyl)-4,5-dihydro-1H-pyrazole-1-carbonyl)azetidin-3-yl)oxy)quinolin-2(1H)-one] was tested. Which pEC50 did it give?
Answer: 6.00 to 9.00

Question: How did the pEC50 turn out when `O=C(N1CC(Oc2ccc3ccc(=O)[nH]c3c2)C1)N1N=CC[C@H]1c1cc(F)cc(F)c1` [Compound 205, (S)-7-((1-(5-(3,5-difluorophenyl)-4,5-dihydro-1H-pyrazole-1-carbonyl)azetidin-3-yl)oxy)quinolin-2(1H)-one] was run?
Answer: 6.00 to 9.00

Question: `O=C1CCc2ccc(OC3CN(C(=O)N4N=CC[C@H]4c4cc(F)cc(F)c4)C3)cc2N1` [Compound 206, (S)-7-((1-(5-(3,5-difluorophenyl)-4,5-dihydro-1H-pyrazole-1-carbonyl)azetidin-3-yl)oxy)-3,4-dihydroquinolin-2(1H)-one] was tested. Which pEC50 did it give?
Answer: 6.00 to 9.00

Question: `O=C(N1CC(Oc2ccc3cn[nH]c3c2)C1)N1N=CC[C@H]1c1cc(F)cc(F)c1` [Compound 207] was tested. Which pEC50 did it give?
Answer: 6.00 to 9.00

Question: With `O=C(N1CC(Oc2ccc3ccc(=O)[nH]c3c2F)C1)N1N=CC[C@H]1c1cc(F)cc(F)c1` [Compound 208, (S)-7-((1(5-(3,5-difluorophenyl)-4,5-dihydro-1H-pyrazole-1-carbonyl)azetidin-3-yl)oxy)-8-fluoroquinolin-2(1H)-one] as the compound, how does the pEC50 read?
Answer: 6.00 to 9.00

Question: With `O=C1Cc2ccc(OC3CN(C(=O)N4N=CC[C@H]4c4cc(F)cc(F)c4)C3)cc2N1` [Compound 209, (S)-6-((1-(5-(3,5-difluorophenyl)-4,5-dihydro-1H-pyrazole-1-carbonyl)azetidin-3-yl)oxy)indolin-2-one] as the compound, how does the pEC50 read?
Answer: 6.00 to 9.00

Question: With `O=C(N1CC(Oc2ncc(F)cc2F)C1)N1N=CCC1c1cc(F)cc(F)c1` (stereo not drawn) [Compound 210, (5-(3,5-difluorophenyl)-4,5-dihydro-1H-pyrazol-1-yl)(3-((3,5-difluoropyridin-2-yl)oxy)azetidin-1-)methanone] as the compound, how does the pEC50 read?
Answer: 6.00 to 9.00

Question: How did the pEC50 turn out when `O=C(N1CC(Oc2ccc(OCc3ccccc3)nc2)C1)N1N=CCC1c1cc(F)cc(F)c1` (stereo not drawn) [Compound 211, (3-((6-(benzyloxy)pyridin-3-yl)oxy)azetidin-1-yl)(5-(3,5-difluorophenyl)-4,5-dihydro-1H-pyrazol-1-yl)methanone] was run?
Answer: 6.00 to 9.00

Question: With `O=C(N1CC(Oc2ccc(F)cn2)C1)N1N=CCC1c1cc(F)cc(F)c1` (stereo not drawn) [Compound 212, (5-(3,5-difluorophenyl)-4,5-dihydro-1H-pyrazol-1-yl)(3-((5-fluoropyridin-2-yl)oxy)azetidin-1-yl)methanone] as the compound, how does the pEC50 read?
Answer: 6.00 to 9.00

Question: With `O=C(N1CC(Oc2ccc(F)cc2F)C1)N1N=CCC1c1cncc(F)c1` (stereo not drawn) [Compound 213, (3-(2,4-difluorophenoxy)114zetidine-1-yl)(5-(5-fluoropyridin-3-yl)-4,5-dihydro-1H-pyrazol-1-yl)methanone] as the compound, how does the pEC50 read?
Answer: 6.00 to 9.00

Question: How did the pEC50 turn out when `O=C(N1CC(Oc2ccc(OCc3ccccc3)cc2)C1)N1N=CC[C@H]1c1cc(F)cc(F)c1` [Compound 214, (S)-(3-(4-(benzyloxy)phenoxy)zetidine-1-yl)(5-(3,5-difluorophenyl)-4,5-dihydro-1H-pyrazol-1-yl)methanone] was run?
Answer: 6.00 to 9.00

Question: `N#Cc1cc(OC2CN(C(=O)N3N=CC[C@H]3c3cc(F)cc(F)c3)C2)ncn1` [Compound 215, (S)-6-((1-(5-(3,5-difluorophenyl)-4,5-dihydro-1H-pyrazole-1-carbonyl)115zetidine-3-yl)oxy)pyrimidine-4-carbonitrile] was tested. Which pEC50 did it give?
Answer: 6.00 to 9.00

Question: With `O=C(N1CC(Oc2ccc3occc3c2)C1)N1N=CCC1c1cc(F)cc(F)c1` (stereo not drawn) [Compound 216, (3-(benzofuran-5-yloxy)115zetidine-1-yl)(5-(3,5-difluorophenyl)-4,5-dihydro-1H-pyrazol-1-yl)methanone] as the compound, how does the pEC50 read?
Answer: 6.00 to 9.00

Question: How did the pEC50 turn out when `O=C(N1CC(Oc2ccc(O)nc2)C1)N1N=CCC1c1cc(F)cc(F)c1` (stereo not drawn) [Compound 217, (5-(3,5-difluorophenyl)-4,5-dihydro-1H-pyrazol-1-yl)(3-((6-hydroxypyridin-3-yl)oxy)115zetidine-1-yl)methanone] was run?
Answer: 6.00 to 9.00

Question: How did the pEC50 turn out when `CNC(=O)c1ccc(OC2CN(C(=O)N3N=CC[C@H]3c3cc(F)cc(F)c3)C2)cc1` [Compound 218, (S)-4-((1-(5-(3,5-difluorophenyl)-4,5-dihydro-1H-pyrazole-1-carbonyl)azetidin-3-yl)oxy)-N-methylbenzamide] was run?
Answer: 6.00 to 9.00

Question: `O=C(N1CC(Oc2ccc(-c3ncc[nH]3)cc2)C1)N1N=CC[C@H]1c1cc(F)cc(F)c1` [Compound 219, (S)-(3-(4-(1H-imidazol-2-yl)phenoxy)azetidin-1-yl)(5-(3,5-difluorophenyl)-4,5-dihydro-1H-pyrazol-1-yl)methanone] was tested. Which pEC50 did it give?
Answer: 6.00 to 9.00

Question: `NC(=O)c1cc(OC2CN(C(=O)N3N=CC[C@H]3c3cc(F)cc(F)c3)C2)ccc1F` [Compound 220] was tested. Which pEC50 did it give?
Answer: 6.00 to 9.00

Question: With `NC(=O)c1cc(F)c(OC2CN(C(=O)N3N=CC[C@H]3c3cc(F)cc(F)c3)C2)c(F)c1` [Compound 222, (S)-4-((1-(5-(3,5-difluorophenyl)-4,5-dihydro-1H-pyrazole-1-carbonyl)azetidin-3-yl)oxy)-3,5-difluorobenzamide] as the compound, how does the pEC50 read?
Answer: 6.00 to 9.00

Question: `O=C(N1CC(Oc2ccc3cc[nH]c3c2)C1)N1N=CC[C@H]1c1cc(F)cc(F)c1` [Compound 223, (S)-(3-((1H-indol-6-yl)oxy)azetidin-1-yl)(5-(3,5-difluorophenyl)-4,5-dihydro-1H-pyrazol-1-yl)methanone] was tested. Which pEC50 did it give?
Answer: 6.00 to 9.00

Question: With `O=C1Cc2ccc(OC3CN(C(=O)N4N=CCC4c4cc(F)cc(F)c4)C3)cc2N1` (stereo not drawn) [Compound 224, 6-((1-(5-(3,5-difluorophenyl)-4,5-dihydro-1H-pyrazole-1-carbonyl)azetidin-3-yl)oxy)indolin-2-one] as the compound, how does the pEC50 read?
Answer: 6.00 to 9.00

Question: With `CC(=O)Nc1ccnc(N2CCN(C(=O)N3N=CC[C@H]3c3cc(F)cc(F)c3)CC2)n1` [Compound 225] as the compound, how does the pEC50 read?
Answer: 6.00 to 9.00

Question: How did the pEC50 turn out when `O=C(Nc1nc(N2CCN(C(=O)N3N=CC[C@H]3c3cc(F)cc(F)c3)CC2)ncc1F)C1CC1` [Compound 226, (S)—N-(2-(4-(5-(3,5-difluorophenyl)-4,5-dihydro-1H-pyrazole-1-carbonyl)piperazin-1-yl)-5-fluoropyrimidin-4-yl)cyclopropanecarboxamide] was run?
Answer: 6.00 to 9.00

Question: How did the pEC50 turn out when `NC(=O)c1ccc(OC2CN(C(=O)N3N=CCC3c3cc(F)cc(F)c3)C2)cc1Cl` (stereo not drawn) [Compound 227, 2-chloro-4-((1-(5-(3,5-difluorophenyl)-4,5-dihydro-1H-pyrazole-1-carbonyl)azetidin-3-yl)oxy)benzamide] was run?
Answer: 6.00 to 9.00

Question: `CC(=O)Nc1cccc(OC2CN(C(=O)N3N=CCC3c3cc(F)cc(F)c3)C2)c1` (stereo not drawn) [Compound 228, N-(3-((1-(5-(3,5-difluorophenyl)-4,5-dihydro-1H-pyrazole-1-carbonyl)azetidin-3-yl)oxy)phenyl)acetamide] was tested. Which pEC50 did it give?
Answer: 6.00 to 9.00

Question: `Nc1cccc(OC2CN(C(=O)N3N=CCC3c3cc(F)cc(F)c3)C2)c1` (stereo not drawn) [Compound 229, (3-(3-aminophenoxy)azetidin-1-yl)(5-(3,5-difluorophenyl)-4,5-dihydro-1H-pyrazol-1-yl)methanone] was tested. Which pEC50 did it give?
Answer: 6.00 to 9.00

Question: `CC(=O)N(C)c1cccc(OC2CN(C(=O)N3N=CCC3c3cc(F)cc(F)c3)C2)c1` (stereo not drawn) [Compound 230, N-(3-((1-(5-(3,5-difluorophenyl)-4,5-dihydro-1H-pyrazole-1-carbonyl)azetidin-3-yl)oxy)phenyl)-N-methylacetamide] was tested. Which pEC50 did it give?
Answer: 6.00 to 9.00

Question: `CNc1cccc(OC2CN(C(=O)N3N=CCC3c3cc(F)cc(F)c3)C2)c1` (stereo not drawn) [Compound 231, (5-(3,5-difluorophenyl)-4,5-dihydro-1H-pyrazol-1-yl)(3-(3-(methylamino)phenoxy)azetidin-1-yl)methanone] was tested. Which pEC50 did it give?
Answer: 6.00 to 9.00

Question: How did the pEC50 turn out when `N#Cc1ccnc(N2CCN(C(=O)N3N=CC[C@H]3c3cc(F)cc(F)c3)CC2)c1` [Compound 232, (S)-2-(4-(5-(3,5-difluorophenyl)-4,5-dihydro-1H-pyrazole-1-carbonyl)piperazin-1-yl)isonicotinonitrile] was run?
Answer: 6.00 to 9.00

Question: How did the pEC50 turn out when `N#Cc1cccc(N2CCN(C(=O)N3N=CC[C@H]3c3cc(F)cc(F)c3)CC2)n1` [Compound 233, (S)-6-(4-(5-(3,5-difluorophenyl)-4,5-dihydro-1H-pyrazol-1-carbonyl)piperazin-1-yl)picolinonitrile] was run?
Answer: 6.00 to 9.00

Question: With `O=C(N1CC(Oc2ccc3cn[nH]c3c2)C1)N1N=CC[C@H]1c1cc(F)cc(F)c1` [Compound 234, (S)(3-((1H-indazol-6-yl)oxy)azetidin-1-yl)(5-(3,5-difluorophenyl)-4,5-dihydro-1H-pyrazol-1-yl)methanone] as the compound, how does the pEC50 read?
Answer: 6.00 to 9.00

Question: With `N#Cc1ccc(F)c(OC2CN(C(=O)N3N=CC[C@H]3c3cc(F)cc(F)c3)C2)c1` [Compound 235, (S)-3-((1-(5-(3,5-difluorophenyl)-4,5-dihydro-1H-pyrazole-1-carbonyl)azetidin-3-yl)oxy)-4-fluorobenzonitrile] as the compound, how does the pEC50 read?
Answer: 6.00 to 9.00

Question: How did the pEC50 turn out when `N#Cc1cc(OC2CN(C(=O)N3N=CC[C@H]3c3cc(F)cc(F)c3)C2)ccc1F` [Compound 236, (S)-5-((1-(5-(3,5-difluorophenyl)-4,5-dihydro-1H-pyrazole-1-carbonyl)azetidin-3-yl)oxy)-2-fluorobenzonitrile] was run?
Answer: 6.00 to 9.00

From US12662469B2 (SIRONAX LTD, priority 2018, dated 2026)
